Consider 32 compounds from patent US8445676B2, “Pyrrolotriazine kinase inhibitors” (Bristol-Myers Squibb Company, priority 2008, dated 2013).

For orientation: IC50 means the concentration that inhibits the measured activity by half.

The structures appear in SMILES notation.

Sequence of JAK2 (O60674 whole entry): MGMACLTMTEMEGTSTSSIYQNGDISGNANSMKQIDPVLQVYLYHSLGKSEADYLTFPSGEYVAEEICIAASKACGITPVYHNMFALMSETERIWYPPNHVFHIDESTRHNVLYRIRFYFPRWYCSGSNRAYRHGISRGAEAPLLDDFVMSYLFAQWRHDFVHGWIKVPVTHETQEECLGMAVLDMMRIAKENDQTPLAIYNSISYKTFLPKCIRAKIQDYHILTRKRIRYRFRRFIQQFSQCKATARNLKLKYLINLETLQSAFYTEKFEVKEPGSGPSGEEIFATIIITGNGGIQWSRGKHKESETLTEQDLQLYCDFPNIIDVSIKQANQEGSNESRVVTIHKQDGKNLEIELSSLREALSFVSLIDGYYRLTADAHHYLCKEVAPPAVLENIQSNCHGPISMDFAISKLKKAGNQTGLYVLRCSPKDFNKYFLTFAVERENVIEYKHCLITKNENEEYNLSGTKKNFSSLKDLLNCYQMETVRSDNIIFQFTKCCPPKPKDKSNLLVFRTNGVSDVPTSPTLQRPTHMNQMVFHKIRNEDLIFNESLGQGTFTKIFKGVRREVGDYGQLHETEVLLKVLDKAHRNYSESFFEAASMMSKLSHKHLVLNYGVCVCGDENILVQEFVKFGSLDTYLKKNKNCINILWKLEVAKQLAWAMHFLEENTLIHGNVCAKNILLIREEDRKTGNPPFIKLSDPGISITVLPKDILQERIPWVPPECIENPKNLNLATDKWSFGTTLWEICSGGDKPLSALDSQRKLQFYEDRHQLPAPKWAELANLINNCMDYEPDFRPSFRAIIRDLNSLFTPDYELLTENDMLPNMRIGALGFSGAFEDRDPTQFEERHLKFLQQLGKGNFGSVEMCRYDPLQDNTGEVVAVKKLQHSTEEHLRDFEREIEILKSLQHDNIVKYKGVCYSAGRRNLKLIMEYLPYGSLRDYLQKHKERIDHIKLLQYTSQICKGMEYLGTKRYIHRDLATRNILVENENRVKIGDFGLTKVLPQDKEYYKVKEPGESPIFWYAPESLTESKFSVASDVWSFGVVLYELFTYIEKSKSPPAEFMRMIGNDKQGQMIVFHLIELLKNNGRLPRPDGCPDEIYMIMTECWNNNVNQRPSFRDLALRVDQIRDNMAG

The assay concerns the target JAK2 (Homo sapiens, UniProt O60674). Kind of assay: JAK2 Tyrosine Kinase Assay. In kind it is biochemical. The following applies: list of named compounds; read-out: IC50 in the JAK2 assay. How it is done: JAK2 Tyrosine Kinase Assay
The assays were performed in V-bottom 384-well plates. […] The reaction was initiated by the combination of JAK2 with substrates and test compounds. The reaction was incubated at room temperature for 60 min. and terminated by adding 45 μl of 35 mM EDTA to each sample. The reaction mixture was analyzed on the Caliper LabChip 3000 by electrophoretic separation of the fluorescent substrate and phosphorylated product. […] Compounds were dissolved at 10 mM in dimethylsulfoxide (DMSO) and evaluated at eleven concentrations, each in duplicate. IC50 values were derived by non-linear regression analysis
Regarding `Cc1cc(Nc2nc(N3CCN(C(=O)C(NC(=O)OC(C)(C)C)c4ccc(Cl)cc4)CC3)nn3cccc23)n[nH]1` (centres unmarked) [tert-butyl (1-(4-chlorophenyl)-2-(4-(4-((5-methyl-1H-pyrazol-3-yl)amino)pyrrolo[2,1-f][1,2,4]triazin-2-yl)-1-piperazinyl)-2-oxoethyl)carbamate], the IC50 was no more than 5 nM.

`Cc1cc(Nc2nc(N3CCN(C(=O)c4csnn4)CC3)nn3cccc23)n[nH]1` [N-(5-methyl-1H-pyrazol-3-yl)-2-(4-(1,2,3-thiadiazol-4-ylcarbonyl)-1-piperazinyl)pyrrolo[2,1-f][1,2,4]triazin-4-amine]: the half-inhibitory concentration (IC50) was no more than 5 nM.

In the case of `Cc1cc(Nc2nc(N3CCN(C(=O)c4ccccc4-c4c(C)n[nH]c4C)CC3)nn3cccc23)n[nH]1` [2-(4-(2-(3,5-dimethyl-1H-pyrazol-4-yl)benzoyl)-1-piperazinyl)-N-(5-methyl-1H-pyrazol-3-yl)pyrrolo[2,1-f][1,2,4]triazin-4-amine], the IC50 was no more than 5 nM.

`Cc1cc(Nc2nc(N3CCN(C(=O)c4ccccc4C#N)CC3)nn3cccc23)n[nH]1` [2-((4-(4-((5-methyl-1H-pyrazol-3-yl)amino)pyrrolo[2,1-f][1,2,4]triazin-2-yl)-1-piperazinyl)carbonyl)benzonitrile]: the IC50 was no more than 5 nM.

Regarding `COc1cccc(C(=O)N2CCN(c3nc(Nc4cc(C)[nH]n4)c4cccn4n3)CC2)c1` [2-(4-(3-methoxybenzoyl)-1-piperazinyl)-N-(5-methyl-1H-pyrazol-3-yl)pyrrolo[2,1-f][1,2,4]triazin-4-amine], the IC50 was no more than 5 nM.

In the case of `Cc1cc(Nc2nc(N3CCN(C(=O)[C@H](O)CCc4ccccc4)CC3)nn3cccc23)n[nH]1` [(2R)-1-(4-(4-((5-methyl-1H-pyrazol-3-yl)amino)pyrrolo[2,1-f][1,2,4]triazin-2-yl)-1-piperazinyl)-1-oxo-4-phenyl-2-butanol], the IC50 was no more than 5 nM.

With `CC(=O)Nc1ccccc1C(=O)N1CCN(c2nc(Nc3cc(C)[nH]n3)c3cccn3n2)CC1` [N-(2-((4-(4-((5-methyl-1H-pyrazol-3-yl)amino)pyrrolo[2,1-f][1,2,4]triazin-2-yl)-1-piperazinyl)carbonyl)phenyl)acetamide], the IC50 is no more than 5 nM.

In the case of `Cc1cc(Nc2nc(N3CCN(C(=O)Cc4c(Cl)cccc4Cl)CC3)nn3cccc23)n[nH]1` [2-(4-((2,6-dichlorophenyl)acetyl)-1-piperazinyl)-N-(5-methyl-1H-pyrazol-3-yl)pyrrolo[2,1-f][1,2,4]triazin-4-amine], the IC50 is no more than 5 nM.

On to `CC(=O)Nc1ccc(C(=O)N2CCN(c3nc(Nc4cc(C)[nH]n4)c4cccn4n3)CC2)cc1` [N-(4-((4-(4-((5-methyl-1H-pyrazol-3-yl)amino)pyrrolo[2,1-f][1,2,4]triazin-2-yl)-1-piperazinyl)carbonyl)phenyl)acetamide], for which the IC50 is no more than 5 nM.

On to `Cc1cc(Nc2nc(N3CCN(C(=O)C(O)c4ccccc4F)CC3)nn3cccc23)n[nH]1` (centres unmarked) [1-(2-fluorophenyl)-2-(4-(4-((5-methyl-1H-pyrazol-3-yl)amino)pyrrolo[2,1-f][1,2,4]triazin-2-yl)-1-piperazinyl)-2-oxoethanol], for which the IC50 was no more than 5 nM.

As for `Cc1cc(Nc2nc(N3CCN(C(=O)Cc4ccccc4C#N)CC3)nn3cccc23)n[nH]1` [2-(2-(4-(4-((5-methyl-1H-pyrazol-3-yl)amino)pyrrolo[2,1-f][1,2,4]triazin-2-yl)-1-piperazinyl)-2-oxoethyl)benzonitrile], the IC50 was no more than 5 nM.

On to `Cc1cc(Nc2nc(N3CCN(C(=O)Cc4cccc(Cl)c4)CC3)nn3cccc23)n[nH]1` [2-(4-((3-chlorophenyl)acetyl)-1-piperazinyl)-N-(5-methyl-1H-pyrazol-3-yl)pyrrolo[2,1-f][1,2,4]triazin-4-amine], for which the IC50 is no more than 5 nM.

Consider `Cc1cc(Nc2nc(N3CCN(C(=O)C4(C(F)(F)F)CCC4)CC3)nn3cccc23)n[nH]1` [N-(5-methyl-1H-pyrazol-3-yl)-2-(4-((1-(trifluoromethyl)cyclobutyl)carbonyl)-1-piperazinyl)pyrrolo[2,1-f][1,2,4]triazin-4-amine], for which the IC50 was no more than 5 nM.

In the case of `Cc1cc(Nc2nc(N3CCN(C(=O)c4ccc(F)cc4)CC3)nn3cccc23)n[nH]1` [2-(4-(4-fluorobenzoyl)-1-piperazinyl)-N-(5-methyl-1H-pyrazol-3-yl)pyrrolo[2,1-f][1,2,4]triazin-4-amine], the IC50 is no more than 5 nM.

For the compound `Cc1cc(Nc2nc(N3CCN(C(=O)c4ccccc4Oc4ccccc4)CC3)nn3cccc23)n[nH]1` [N-(5-methyl-1H-pyrazol-3-yl)-2-(4-(2-phenoxybenzoyl)-1-piperazinyl)pyrrolo[2,1-f][1,2,4]triazin-4-amine], the IC50 was no more than 5 nM.

In the case of `Cc1cc(Nc2nc(N3CCN(C(=O)c4c(F)cccc4Cl)CC3)nn3cccc23)n[nH]1` [2-(4-(2-chloro-6-fluorobenzoyl)-1-piperazinyl)-N-(5-methyl-1H-pyrazol-3-yl)pyrrolo[2,1-f][1,2,4]triazin-4-amine], the IC50 is no more than 5 nM.

Consider `CC(=O)NC(C(=O)N1CCN(c2nc(Nc3cc(C)[nH]n3)c3cccn3n2)CC1)c1ccccc1` (centres unmarked) [N-(2-(4-(4-((5-methyl-1H-pyrazol-3-yl)amino)pyrrolo[2,1-f][1,2,4]triazin-2-yl)-1-piperazinyl)-2-oxo-1-phenylethyl)acetamide], for which the IC50 is no more than 5 nM.

With `Cc1cccc(CC(=O)N2CCN(c3nc(Nc4cc(C)[nH]n4)c4cccn4n3)CC2)c1` [2-(4-((3-methylphenyl)acetyl)-1-piperazinyl)-N-(5-methyl-1H-pyrazol-3-yl)pyrrolo[2,1-f][1,2,4]triazin-4-amine], the 50% inhibitory concentration (IC50) is no more than 5 nM.

For the compound `COc1ccc(CC(=O)N2CCN(c3nc(Nc4cc(C)[nH]n4)c4cccn4n3)CC2)cc1` [2-(4-((4-methoxyphenyl)acetyl)-1-piperazinyl)-N-(5-methyl-1H-pyrazol-3-yl)pyrrolo[2,1-f][1,2,4]triazin-4-amine], the IC50 is no more than 5 nM.

For the compound `Cc1cc(Nc2nc(N3CCN(C(=O)c4cccc(Cl)c4)CC3)nn3cccc23)n[nH]1` [2-(4-(3-chlorobenzoyl)-1-piperazinyl)-N-(5-methyl-1H-pyrazol-3-yl)pyrrolo[2,1-f][1,2,4]triazin-4-amine], the IC50 was no more than 5 nM.

For the compound `Cc1ccc(C2(C(=O)N3CCN(c4nc(Nc5cc(C)[nH]n5)c5cccn5n4)CC3)CCCCC2)cc1` [2-(4-((1-(4-methylphenyl)cyclohexyl)carbonyl)-1-piperazinyl)-N-(5-methyl-1H-pyrazol-3-yl)pyrrolo[2,1-f][1,2,4]triazin-4-amine], the 50% inhibitory concentration (IC50) was no more than 5 nM.

In the case of `Cc1cc(Nc2nc(N3CCN(C(=O)c4ccc(OC(F)(F)F)cc4)CC3)nn3cccc23)n[nH]1` [N-(5-methyl-1H-pyrazol-3-yl)-2-(4-(4-(trifluoromethoxy)benzoyl)-1-piperazinyl)pyrrolo[2,1-f][1,2,4]triazin-4-amine], the IC50 is no more than 5 nM.

Regarding `Cc1cc(Nc2nc(N3CCN(C(=O)c4cccc(F)c4)CC3)nn3cccc23)n[nH]1` [2-(4-(3-fluorobenzoyl)-1-piperazinyl)-N-(5-methyl-1H-pyrazol-3-yl)pyrrolo[2,1-f][1,2,4]triazin-4-amine], the IC50 is no more than 5 nM.

Take `Cc1cc(Nc2nc(N3CCN(C(=O)Cc4cccc(C#N)c4)CC3)nn3cccc23)n[nH]1` [3-(2-(4-(4-((5-methyl-1H-pyrazol-3-yl)amino)pyrrolo[2,1-f][1,2,4]triazin-2-yl)-1-piperazinyl)-2-oxoethyl)benzonitrile]: the IC50 was no more than 5 nM.

In the case of `Cc1cc(Nc2nc(N3CCN(C(=O)C(O)c4ccc(Cl)cc4)CC3)nn3cccc23)n[nH]1` (centres unmarked) [1-(4-chlorophenyl)-2-(4-(4-((5-methyl-1H-pyrazol-3-yl)amino)pyrrolo[2,1-f][1,2,4]triazin-2-yl)-1-piperazinyl)-2-oxoethanol], the half-inhibitory concentration (IC50) is no more than 5 nM.

Turning to `Cc1cc(Nc2nc(N3CCN(C(=O)c4ccccc4Br)CC3)nn3cccc23)n[nH]1` [2-(4-(2-bromobenzoyl)-1-piperazinyl)-N-(5-methyl-1H-pyrazol-3-yl)pyrrolo[2,1-f][1,2,4]triazin-4-amine], the concentration for half-maximal inhibition (IC50) is no more than 5 nM.

Consider `Cc1cc(Nc2nc(N3CCN(C(=O)C(C)c4ccc(Cl)cc4)CC3)nn3cccc23)n[nH]1` (centres unmarked) [2-(4-(2-(4-chlorophenyl)propanoyl)-1-piperazinyl)-N-(5-methyl-1H-pyrazol-3-yl)pyrrolo[2,1-f][1,2,4]triazin-4-amine], for which the IC50 is no more than 5 nM.

In the case of `CC(=O)Nc1cccc(C(=O)N2CCN(c3nc(Nc4cc(C)[nH]n4)c4cccn4n3)CC2)c1` [N-(3-((4-(4-((5-methyl-1H-pyrazol-3-yl)amino)pyrrolo[2,1-f][1,2,4]triazin-2-yl)-1-piperazinyl)carbonyl)phenyl)acetamide], the half-maximal inhibitory concentration (IC50) was no more than 5 nM.

`CCOc1cc(F)c(CC(=O)N2CCN(c3nc(Nc4cc(C)[nH]n4)c4cccn4n3)CC2)c(F)c1` [2-(4-((4-ethoxy-2,6-difluorophenyl)acetyl)-1-piperazinyl)-N-(5-methyl-1H-pyrazol-3-yl)pyrrolo[2,1-f][1,2,4]triazin-4-amine]: the IC50 was no more than 5 nM.

For the compound `Cc1cc(Nc2nc(N3CCN(C(=O)C(C)(C)c4ccc(Cl)cc4)CC3)nn3cccc23)n[nH]1` [2-(4-(2-(4-chlorophenyl)-2-methylpropanoyl)-1-piperazinyl)-N-(5-methyl-1H-pyrazol-3-yl)pyrrolo[2,1-f][1,2,4]triazin-4-amine], the half-maximal inhibitory concentration (IC50) was no more than 5 nM.

In the case of `Cc1cc(Nc2nc(N3CCN(C(=O)c4ccoc4)CC3)nn3cccc23)n[nH]1` [2-(4-(3-furoyl)-1-piperazinyl)-N-(5-methyl-1H-pyrazol-3-yl)pyrrolo[2,1-f][1,2,4]triazin-4-amine], the IC50 is no more than 5 nM.

With `Cc1cc(Nc2nc(N3CCN(C(=O)Cc4cccc(F)c4)CC3)nn3cccc23)n[nH]1` [2-(4-((3-fluorophenyl)acetyl)-1-piperazinyl)-N-(5-methyl-1H-pyrazol-3-yl)pyrrolo[2,1-f][1,2,4]triazin-4-amine], the IC50 was no more than 5 nM.
